This note sets out measurements from patent publication US20180282819A1, “Targeting the Histone Pathway to Detect and Overcome Anthracyclin Resistance” (ONTARIO INSTITUTE FOR CANCER RESEARCH (OICR), priority 2015, published 2018).

Common to all, as to format: cell-based, human
The test system of experiment [1] is MDA-MB-231 Native. Briefly: Proliferation, cell-doubling time. On the procedure: (§1) Cells were cultured in the presence or absence of epirubicin for up to 96 h (see Flow Cytometry for epirubicin concentrations). Cells were collected at 24, 48, 72 and 96 hours and counted by ViCell (Beckman Coulter, Mississauga, Canada). Data were analyzed in GraphPad Prism5 software.
(§2) To determine cell-doubling time, the investigators cultured cells with or without epirubicin for up to 96 h. In the absence of epirubicin, the native MDA-MB-231 and MCF7 cell populations doubled every 25 h and 29 h, respectively (Table 2), whereas native SKBR3 and ZR-75-1 cells grew more slowly, doubling every 45 h and 50 h, respectively. In the presence of epirubicin, doubling time increased 2.8-fold for the MDA-MB-231 (p=0.0371), 2.5-fold for MCF7 (ns), 1.3-fold for SKBR3 (p=0.0494) and 1.9-fold for ZR-75-1 (p=0.0258) for native cells. In contrast to the native cell lines, there were no marked changes in the doubling time of the resistant cells, regardless of whether epirubicin was added (Table 2).

In experiment [2] the test system is SKBR3 Native. Briefly: Proliferation, cell-doubling time. Here is the method:
as §1, §2

Experiment [3] relates to MDA-MB-231 25 nM-Resistant. Briefly: Proliferation, cell-doubling time. The following applies: +25 nM epirubicin. Here is the method: as §1, §2
The next experiment has as its system ZR-75-1 10 nM-Resistant. Briefly: Proliferation, cell-doubling time. The following applies: +10 nM epirubicin. Here is the method:
as §1, §2

The test system of a further experiment is SKBR3 15 nM-Resistant. Briefly: Proliferation, cell-doubling time. The following applies: +15 nM epirubicin. Here is the method:
as §1, §2

The subject of the next experiment is MCF7 30 nM-Resistant. Briefly: Proliferation, cell-doubling time. The following applies: +30 nM epirubicin. On the procedure: as §1, §2
For experiment [4], the system named is ZR-75-1 Native. Briefly: Proliferation, cell-doubling time. On the procedure:
as §1, §2

The test system of experiment [5] is MCF7 Native. Briefly: Proliferation, cell-doubling time. On the procedure:
as §1, §2

The test system of a further experiment is ZR-75-1 10 nM-R. Briefly: Apoptosis, Annexin V flow cytometry. The following applies: 72 h. On the procedure: (§3) For cell cycle, cells were synchronized by the double-thymidine block (Whitfield et al. 2000) and incubated with DMSO or epirubicin doses established for each cell line: 25 nM for MDA-MB-231, 30 nM for MCF7, 15 nM for SKBR3, 10 nM for ZR-75-1. Cells were collected at 48 h, fixed with 80% ethanol and incubated with 2 mg/ml RNase A and 0.1 mg/ml propidium iodide (both from Sigma, Oakville, Canada) prior to analysis. For apoptosis experiments, cells were treated with DMSO or epirubicin at concentrations described above, and collected at 72 h for staining with Annexin V apoptosis-detection eFluor450 (eBioscience, San Diego, USA). Data were collected by FACSCanto II and FACSDiva (BD Biosciences, Mississauga, Canada) and analyzed by FlowJo (Treestar, Ashland, USA).
(§4) To assess the effects of epirubicin on apoptosis, apoptotic cells were scored by flow cytometry after 72 h of exposure to epirubicin. The apoptotic index was consistently lower for resistant cells compared to native controls (Table 1). In particular, MDA-MB-231 and SKBR3 resistant cells required a substantially higher concentration of epirubicin (1000 nM) to induce apoptosis; even at this concentration of epirubicin, the apoptotic index was still nearly 50% lower compared to the native cells (Table 1).
(A flow cytometer gives signals particle by particle.)

Another experiment concerns MDA-MB-231 25 nM-R. Briefly: Apoptosis, Annexin V flow cytometry. The following applies: 72 h. Here is the method:
as §3, §4

Another experiment relates to SKBR3 15 nM-R. Briefly: Apoptosis, Annexin V flow cytometry. The following applies: 72 h. Here is the method: as §3, §4
The test system of experiment [6] is MDA-MB-231 Native. Briefly: Apoptosis, Annexin V flow cytometry. The following applies: 72 h. On the procedure:
as §3, §4

The subject of experiment [7] is SKBR3 Native. Briefly: Apoptosis, Annexin V flow cytometry. The following applies: 72 h. Here is the method: as §3, §4
For a further experiment, the system named is MCF7 30 nM-R. Briefly: Apoptosis, Annexin V flow cytometry. The following applies: 72 h. Here is the method: as §3, §4
The subject of experiment [8] is ZR-75-1 Native. Briefly: Apoptosis, Annexin V flow cytometry. The following applies: 72 h. Here is the method: as §3, §4
In experiment [9] the test system is MCF7 Native. Briefly: Apoptosis, Annexin V flow cytometry. The following applies: 72 h. On the procedure:
as §3, §4

For another experiment, the system named is MDA-MB-231 native cells. Briefly: Cell cycle, PI flow cytometry after double-thymidine block. The following applies: 25 nM epirubicin, 48 h. On the procedure:
(§5) (A-D) Cells were synchronized by a double-thymidine block and treated with DMSO or epirubicin at selection doses established for each resistant cell line: 25 nM epirubicin to MDA-MB-231, 30 nM epirubicin to MCF7, 15 nM epirubicin to SKBR3 and […]. Epirubicin concentration was increased to 100 nM for MCF7 and SKBR3 cells since G2/M block was not observed at the lower doses of epirubicin. Cells were collected at 48 h, stained by PI and analyzed by flow cytometry. Debris was gated out.
as §3
(§6) Cells were synchronized prior to exposure to DMSO or epirubicin. […] Therefore, overcoming a G2/M block may be part of the process leading to epirubicin resistance.

In experiment [10] the test system is MCF7 epirubicin-resistant cells. The description is as above. The following applies: 100 nM epirubicin, 48 h. Here is the method: as §5, §3, §6
The test system of experiment [11] is MDA-MB-231 resistant cells. The experiment is described as above. The following applies: 25 nM epirubicin, 48 h. On the procedure: as §5, §3, §6
In another experiment the test system is MCF7 native cells. Described as above. The following applies: 100 nM epirubicin, 48 h. Here is the method:
as §5, §3, §6

For a further experiment, the system named is ZR-75-1 resistant cells. The description is as above. The following applies: 10 nM epirubicin, 48 h. On the procedure: as §5, §3, §6
Another experiment has as its system ZR-75-1 native cells. The experiment is described as above. The following applies: 10 nM epirubicin, 48 h. On the procedure: as §5, §3, §6
In a further experiment the test system is SKBR3 native cells. The description is as above. The following applies: 100 nM epirubicin, 48 h. On the procedure:
as §5, §3, §6

For experiment [12], the system named is SKBR3 epirubicin-resistant cells. The description is as above. The following applies: 100 nM epirubicin, 48 h. On the procedure: as §5, §3, §6
Experiment [13] relates to all four epirubicin-resistant cell lines (MDA-MB-231, MCF7, SKBR3, ZR-75-1). Briefly: Drug resistance and cross resistance, CCK-8 viability. The following applies: 72 h. On the procedure: Native and resistant cells were exposed to drug concentrations ranging from 0.3 nM to 3000 nM. Cell viability was determined 72 h later by CCK-8 assay. A) Percent of live cells relative to DMSO control was plotted against epirubicin concentration. Black=native cells, magenta=resistant cells. B) IC50 values in nM concentration±standard deviation. Resistance factor is shown in parenthesis and represents resistant IC50/native IC50.
Breast cancer cell lines (MDA-MB-231, MCF7, ZR-75-1, SKBR3) were purchased from ATCC and cultured in DMEM (except SKBR3, cultured in RPMI) supplemented with 10% heat-inactivated fetal bovine serum and 1% L-glutamine (Gibco, Burlington, Canada). Epirubicin-resistant cell lines were generated by exposing native cells to increasing concentrations of epirubicin with an initial concentration set at 0.5 nM. Resistance was defined when IC50 value superseded the IC50 value of the corresponding native cell line, and resistant cells could not tolerate further increase in drug concentration. Drug resistance and cross resistance were determined by exposing cells to drug concentrations ranging from 0.3-3000 nM for 72 h. Cell viability was determined by Cell Counting Kit-8 (CCK-8, Dojindo, Cedarlane, Burlington, Canada). IC50 were calculated in GraphPad Prism5.

For `COc1cccc2c1C(=O)c1c(O)c3c(c(O)c1C2=O)C[C@@](O)(C(=O)CO)C[C@@H]3O[C@H]1C[C@H](N)[C@@H](O)[C@H](C)O1` [epirubicin], the Doubling times in the experiment with MDA-MB-231 Native [1] (MDA-MB-231 Native, +25 nM epirubicin) is 70 h; in the experiment with SKBR3 Native [2] (SKBR3 Native, +15 nM epirubicin), 57 h; in experiment [3], 43 h; in the experiment on ZR-75-1 10 nM-Resistant it was 67 h; with SKBR3 15 nM-Resistant it was 66 h; with MCF7 30 nM-Resistant, 37 h. In addition, the Doubling times in the experiment on ZR-75-1 Native [4] (ZR-75-1 Native, +10 nM epirubicin) turned out to be 95 h; with MCF7 Native [5] (MCF7 Native, +30 nM epirubicin), 74 h. Also, the “increase of doubling time in the presence of epirubicin” value in the experiment on MDA-MB-231 Native [1] (MDA-MB-231 native cells, p=0.0371) is on record as 2.8 fold; with SKBR3 Native [2] (SKBR3 native cells, p=0.0494), 1.3 fold; in the experiment on ZR-75-1 Native [4] (ZR-75-1 native cells, p=0.0258), 1.9 fold; in the experiment on MCF7 Native [5] (MCF7 native cells, ns), 2.5 fold. The “Percentages of apoptotic cells” value in the experiment with ZR-75-1 10 nM-R (1 nM epirubicin) is recorded as 28%; in the experiment on ZR-75-1 10 nM-R (10 nM epirubicin), 29%; in the experiment with ZR-75-1 10 nM-R (1000 nM epirubicin), 62%; with MDA-MB-231 25 nM-R (1 nM epirubicin) it was 10%; with MDA-MB-231 25 nM-R (25 nM epirubicin), 8%; in the experiment on MDA-MB-231 25 nM-R (1000 nM epirubicin), 50%. Also, the “Percentages of apoptotic cells” value with SKBR3 15 nM-R (1 nM epirubicin) came to 17%; in the experiment on SKBR3 15 nM-R (15 nM epirubicin) it was 17%; in the experiment with SKBR3 15 nM-R (1000 nM epirubicin) it was 34%; in the experiment on MDA-MB-231 Native [6] (1 nM epirubicin) it was 17%; in the experiment on MDA-MB-231 Native [6] (25 nM epirubicin), 41%; with MDA-MB-231 Native [6] (1000 nM epirubicin) it was 94%. The “Percentages of apoptotic cells” value in the experiment on SKBR3 Native [7] (1 nM epirubicin) came to 26%; in the experiment on SKBR3 Native [7] (15 nM epirubicin), 24%; with SKBR3 Native [7] (1000 nM epirubicin), 59%; with MCF7 30 nM-R (1 nM epirubicin) it was 24%; with MCF7 30 nM-R (30 nM epirubicin), 23%; in the experiment with MCF7 30 nM-R (1000 nM epirubicin) it was 78%. Besides, the “Percentages of apoptotic cells” value was 44% with ZR-75-1 Native [8] (1 nM epirubicin); 47% with ZR-75-1 Native [8] (10 nM epirubicin); 71% with ZR-75-1 Native [8] (1000 nM epirubicin); 29% in the experiment on MCF7 Native [9] (1 nM epirubicin); 49% in the experiment with MCF7 Native [9] (30 nM epirubicin); 77% in the experiment with MCF7 Native [9] (1000 nM epirubicin). The “effect on cell cycle” value is on record as “arrested in G2/M phase” in the experiment with MDA-MB-231 native cells; “minimal effect” in experiment [10]; “progressed through” in experiment [11]; “arrested in G2/M phase” in the experiment on MCF7 native cells; “progressed through” in the experiment on ZR-75-1 resistant cells; “arrested in G2/M phase” with ZR-75-1 native cells. Also, the “effect on cell cycle” value in the experiment with SKBR3 native cells is recorded as “arrested in G2/M phase”; in experiment [12], “minimal effect”.

As to `N.N.O=C([O-])C1(C(=O)[O-])CCC1.[Pt+2]` [carboplatin], the “cross-resistance of epirubicin-resistant cell lines” value in experiment [13] is given as “None of the cell lines were cross-resistant”.
